Experimental findings from ChEMBL document CHEMBL1132756, “A new benzoangelicin with strong photobiological activity” (Bioorg Med Chem Lett, 2000) are described below.

For experiment [1], the species on record is Cavia porcellus. In words: Phototoxicity (50 mg cm e-2) was evaluated; No phototoxicity. The experiment is classed as functional, organism-based.
Another experiment concerns HL-60. In words: In vitro antiproliferative activity against human promyelocytic (HL-60) cells. Type of experiment: functional, cell-based.
For another experiment, the system named is HeLa. Kind of experiment: In vitro antiproliferative activity against human cervix adenocarcinoma (HeLa) cells. Type of experiment: functional, cell-based.
The species entered for experiment [2] is Cavia porcellus. Kind of experiment: Phototoxicity (10 mg/cm**2) was evaluated; highly toxic. The experiment is classed as functional, organism-based.
Experiment [3] has as its system Cavia porcellus. Kind of experiment: Compound was evaluated for the erythema formation; +++ means severe erythema with edema. Type of experiment: functional, organism-based.

pIC50: −log10 of the molar value. Active and inactive are the calls of the source. The calls are words filed in the database; no cut-off is given here.

As for `Cc1cc(=O)oc2c1c(OCCCN(C)C)cc1oc3ccccc3c12`, the Phototoxicity entry in the experiment listed under Cavia porcellus [1] was “No phototoxicity”. Further, the pIC50 (commonly −log10 of the IC50, conventionally taken in molar units) was 6.28 in the experiment on HL-60 and 5.95 in the experiment with HeLa.

For the compound `COc1cc2oc3ccccc3c2c2oc(=O)cc(C)c12`, in the experiment filed under Cavia porcellus [1], the Phototoxicity entry was “No phototoxicity”. Besides, the pIC50 with HL-60 and in the experiment on HeLa was below 4.70 throughout.

`Cc1cc(=O)oc2c1c(O)cc1oc3ccccc3c12`: in the experiment listed under Cavia porcellus [1], the Phototoxicity result was “No phototoxicity”. In addition, the pIC50 with HL-60 was 5.16; in the experiment with HeLa it was below 4.70.

Take `COc1c2occc2cc2ccc(=O)oc12` [METHOXSALEN]: the Phototoxicity result in the experiment filed under Cavia porcellus [2] is “Toxic”. Besides, the pIC50 in the experiment with HL-60 is 5.27; in the experiment with HeLa, 5.00. In the experiment on Cavia porcellus [3], the Erythema formation result was “Active”.
